These results are taken from patent publication US8188078B2 (Sanofi-Aventis, priority 2007, dated 2012).

Structures can show the parent of a compound that is named as a salt. Where only a bound is given, the exact number is not on record here.

For test [1], the target named is T1, MET (Homo sapiens, UniProt P08581).
T1 construct: endogenous in cells; host or cells: MKN45 cells
The test is described as follows: Test C: inhibition of the autophosphorylation of MET, ELISA technique (pppY1230, 1234, 1235), MKN45 cells. The test is classed as cell-based. The procedure, abridged: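 MKN45 cells adhered 24 h, then treated 1 h with compound at 6 concentrations in duplicate, final range 10000 to 30 nM. Lysates assayed by phospho-MET (pY1230/1234/1235) sandwich ELISA with HRP chromogen read at 450 nm.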
In general terms: In an ELISA, binding on a coated surface is turned into a signal by an enzyme label.

For test [2], the system named is MKN45 cells. The test is described as follows: Test D: cellular proliferation by 14C-thymidine pulse, MKN45 cells. Conditions: Homo sapiens, MKN-45, cellular proliferation by 14C-thymidine pulse; cell line not stated (HCT116 or MKN45). The test is classed as cell-based. In outline: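 MKN45 cells (7500/well, RPMI + 10% foetal calf serum) treated with 10 concentrations, 10000 to 0.3 nM in 3-fold steps, duplicate. 14C-thymidine (0.1 μCi/well) added at 72 h; incorporation counted after 24 h pulse, 96 h total treatment.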

Test [3] deals with RON (Homo sapiens, UniProt Q04912). The test is described as follows: Test B: HTRF RON test in 96-well format. The test is classed as biochemical. How it is done:
B) HTRF RON Test in 96-Well Format
The inhibitory potency (IC50) of molecules on the enzymatic activity of kinase phosphorylation RON is determined by the HTRF technique. The activity of the kinase is evaluated by measuring the phosphorylation of the substrate polyGAT by the enzyme, in the presence of ATP.
Final RON 5 nM is incubated in the presence of the molecule to be tested (for a final concentration range from 0.17 nM to 10 μM, final DMSO 3%) in buffer MOPS 10 mM pH 7, DTT 1 mM, Tween 20 0.01%. This pre-incubation is performed in 96 half-well black plates in a volume of 35 μl for 30 minutes at room temperature.
The reaction is initiated by adding 15 μl of a mixture of substrates constituted of biotinylated poly-(GAT) 1 μg/ml final and ATP 10 μM final in the presence of MgCl2 5 mM final for a final volume of 50 μl.
After incubation for 30 min at room temperature, the reaction is stopped with 30 μl of a mixture of Hepes 100 mM final pH 7, potassium fluoride 400 mM final, BSA 0.1% and EDTA 133 mM in the presence of 80 ng per well of antibodies Streptavidin ITS-XL665 Cis-Bio Int. and 18 ng per well of anti-phosphotyrosine PT66 labelled with europium cryptate.
After incubation for 2 hours at room temperature, reading is carried out at 2 wavelengths 620 nm and 665 nm in a Genios TECAN reader for the TRACE/HTRF technique and the percentage inhibition is calculated according to the 665/620 ratios.

T1 sequence (P08581 25-1390): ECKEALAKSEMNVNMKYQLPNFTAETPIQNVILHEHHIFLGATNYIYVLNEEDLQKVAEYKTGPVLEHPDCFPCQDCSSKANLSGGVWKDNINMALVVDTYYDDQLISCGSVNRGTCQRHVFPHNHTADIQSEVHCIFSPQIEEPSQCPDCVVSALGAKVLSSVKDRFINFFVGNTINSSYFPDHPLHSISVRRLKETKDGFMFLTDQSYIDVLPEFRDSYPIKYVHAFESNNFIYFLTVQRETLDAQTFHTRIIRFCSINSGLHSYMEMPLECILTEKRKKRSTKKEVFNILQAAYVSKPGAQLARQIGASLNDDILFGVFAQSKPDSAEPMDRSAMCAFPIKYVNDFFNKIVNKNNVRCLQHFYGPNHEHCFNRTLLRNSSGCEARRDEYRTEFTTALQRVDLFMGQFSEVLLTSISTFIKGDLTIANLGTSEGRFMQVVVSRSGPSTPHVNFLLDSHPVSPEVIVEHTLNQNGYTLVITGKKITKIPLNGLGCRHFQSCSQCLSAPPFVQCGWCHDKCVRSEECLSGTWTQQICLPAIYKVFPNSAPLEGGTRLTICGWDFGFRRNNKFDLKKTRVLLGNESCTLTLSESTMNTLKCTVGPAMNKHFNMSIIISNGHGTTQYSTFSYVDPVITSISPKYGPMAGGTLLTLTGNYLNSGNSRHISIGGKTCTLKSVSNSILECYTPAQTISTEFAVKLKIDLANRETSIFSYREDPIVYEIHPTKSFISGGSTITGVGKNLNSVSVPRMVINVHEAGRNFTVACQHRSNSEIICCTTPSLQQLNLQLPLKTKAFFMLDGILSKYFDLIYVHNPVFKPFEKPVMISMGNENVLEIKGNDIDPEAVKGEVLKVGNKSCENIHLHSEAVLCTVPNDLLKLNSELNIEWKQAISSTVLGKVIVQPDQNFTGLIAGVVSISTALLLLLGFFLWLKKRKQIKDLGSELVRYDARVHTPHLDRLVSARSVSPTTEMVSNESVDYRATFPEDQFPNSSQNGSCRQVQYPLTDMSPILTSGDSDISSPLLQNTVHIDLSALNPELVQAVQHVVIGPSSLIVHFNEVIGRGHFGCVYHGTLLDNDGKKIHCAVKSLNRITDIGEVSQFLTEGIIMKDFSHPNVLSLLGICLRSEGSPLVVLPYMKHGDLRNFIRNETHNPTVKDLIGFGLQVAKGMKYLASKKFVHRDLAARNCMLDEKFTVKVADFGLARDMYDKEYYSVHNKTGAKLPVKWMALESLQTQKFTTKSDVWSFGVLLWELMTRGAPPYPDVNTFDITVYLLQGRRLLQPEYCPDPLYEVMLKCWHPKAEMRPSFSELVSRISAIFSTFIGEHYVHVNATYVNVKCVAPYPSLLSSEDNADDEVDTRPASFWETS
Chain of RON (Q04912 25-1400): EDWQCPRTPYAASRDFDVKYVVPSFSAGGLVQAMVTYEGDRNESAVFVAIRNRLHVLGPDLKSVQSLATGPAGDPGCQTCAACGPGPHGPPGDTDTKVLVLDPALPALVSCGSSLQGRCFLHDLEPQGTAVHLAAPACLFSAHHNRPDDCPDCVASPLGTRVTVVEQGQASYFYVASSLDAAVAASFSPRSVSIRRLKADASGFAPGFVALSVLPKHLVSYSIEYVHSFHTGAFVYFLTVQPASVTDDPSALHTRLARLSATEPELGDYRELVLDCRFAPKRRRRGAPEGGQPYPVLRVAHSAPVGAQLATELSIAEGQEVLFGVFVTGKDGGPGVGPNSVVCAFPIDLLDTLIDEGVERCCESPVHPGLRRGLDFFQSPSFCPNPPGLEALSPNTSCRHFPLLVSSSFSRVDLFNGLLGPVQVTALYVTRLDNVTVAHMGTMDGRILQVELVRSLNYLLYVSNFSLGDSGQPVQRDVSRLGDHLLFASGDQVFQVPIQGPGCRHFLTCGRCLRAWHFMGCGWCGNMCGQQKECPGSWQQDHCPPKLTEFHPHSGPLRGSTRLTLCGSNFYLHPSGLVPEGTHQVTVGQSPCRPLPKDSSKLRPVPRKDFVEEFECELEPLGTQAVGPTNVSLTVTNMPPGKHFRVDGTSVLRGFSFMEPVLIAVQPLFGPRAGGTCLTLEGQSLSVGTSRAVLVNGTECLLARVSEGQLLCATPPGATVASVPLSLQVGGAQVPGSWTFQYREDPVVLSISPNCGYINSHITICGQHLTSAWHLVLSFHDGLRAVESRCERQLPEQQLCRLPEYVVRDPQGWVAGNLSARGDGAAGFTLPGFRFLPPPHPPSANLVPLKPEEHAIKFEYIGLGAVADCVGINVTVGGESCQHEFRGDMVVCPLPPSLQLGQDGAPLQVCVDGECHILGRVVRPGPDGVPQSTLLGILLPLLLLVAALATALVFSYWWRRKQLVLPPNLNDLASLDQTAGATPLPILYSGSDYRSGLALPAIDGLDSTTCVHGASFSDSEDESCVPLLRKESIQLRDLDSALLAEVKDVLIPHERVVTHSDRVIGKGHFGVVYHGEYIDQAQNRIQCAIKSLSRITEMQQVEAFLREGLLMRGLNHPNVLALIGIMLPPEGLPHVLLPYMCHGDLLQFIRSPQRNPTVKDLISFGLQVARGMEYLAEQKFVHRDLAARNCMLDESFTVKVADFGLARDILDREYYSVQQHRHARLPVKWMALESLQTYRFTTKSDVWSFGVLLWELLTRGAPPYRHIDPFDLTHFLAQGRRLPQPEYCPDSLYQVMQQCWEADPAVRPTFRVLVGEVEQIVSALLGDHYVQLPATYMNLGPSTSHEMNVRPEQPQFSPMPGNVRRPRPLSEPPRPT

Turning to `CC(Oc1cc2[nH]c(NC(=O)NCCN3CCOCC3)nc2cc1F)c1c(Cl)cccc1Cl` (stereo not drawn) [Example 5, 1-{6-[1-(2,6-dichlorophenyl)ethoxy]-5-fluoro-1H-benzimidazol-2-yl}-3-(2-morpholin-4-ylethyl)urea], the IC50 (as a rule, the concentration that inhibits the measured activity by half) was 0.5 to 10 µM in test [1], 0.5 to 10 µM in test [2] and less than 0.5 µM in test [3].

`O=C(NCCN1CCOCC1)Nc1nc2ccc(OCc3c(Cl)cccc3Cl)cc2s1` [Example 10, 1-{6-[(2,6-dichlorobenzyl)oxy]-1,3-benzothiazol-2-yl}-3-(2-morpholin-4-ylethyl)urea]: the IC50 in test [1], in test [2] and in test [3] was 0.5 to 10 µM in each case.

On to `CC(Oc1ccc2nc(NC(=O)NCCN3CCOCC3)sc2c1)c1c(Cl)cccc1Cl` (stereo not drawn) [Example 17, 1-{6-[1-(2,6-dichlorophenyl)ethoxy]-1,3-benzothiazol-2-yl}-3-(2-morpholin-4-ylethyl)urea], for which the IC50 in test [1] was 0.5 to 10 µM; in test [2] it was 0.5 to 10 µM; in test [3], less than 0.5 µM.

With `CC(Oc1ccc2nc(NC(=O)NCCN3CCOCC3)sc2c1)c1c(F)cccc1F` (stereo not drawn) [Example 18, 1-{6-[1-(2,6-difluorophenyl)ethoxy]-1,3-benzothiazol-2-yl}-3-(2-morpholin-4-ylethyl)urea], the IC50 in test [1], in test [2] and in test [3] was 0.5 to 10 µM each time.

Turning to `CC(Oc1ccc2nc(NC(=O)NCCN3CCOCC3)sc2c1)c1ccccc1C(F)(F)F` (stereo not drawn) [Example 19, 1-(2-morpholin-4-ylethyl)-3-(6-{1-[2-(trifluoromethyl)phenyl]ethoxy}-1,3-benzothiazol-2-yl)urea], the IC50 in test [1] is 0.5 to 10 µM; in test [2], greater than 10 µM; in test [3], 0.5 to 10 µM.

With `O=C(NCCN1CCOCC1)Nc1nc2cc(F)c(OCc3c(Cl)cccc3Cl)cc2s1` [Example 21, 1-{6-[(2,6-dichlorobenzyl)oxy]-5-fluoro-1,3-benzothiazol-2-yl}-3-(2-morpholin-4-ylethyl)urea], the IC50 in test [1], in test [2] and in test [3] was 0.5 to 10 µM throughout.

Turning to `CC(Oc1ccc2nc(NC(=O)NCCN3CCOCC3)sc2c1)c1c(Cl)ccc(F)c1Cl` (stereo not drawn) [Example 24, 1-{6-[1-(2,6-dichloro-3-fluorophenyl)ethoxy]-1,3-benzothiazol-2-yl}-3-(2-morpholin-4-ylethyl)urea], the IC50 in test [1], in test [2] and in test [3] was less than 0.5 µM in each case.

With `Cc1ccc(F)c(C(C)Oc2ccc3nc(NC(=O)NCCN4CCOCC4)sc3c2)c1Cl` (stereo not drawn) [Example 28, 1-{6-[1-(2-chloro-6-fluoro-3-methylphenyl)ethoxy]-1,3-benzothiazol-2-yl}-3-(2-morpholin-4-ylethyl)urea], the IC50 is 0.5 to 10 µM in test [1], greater than 10 µM in test [2] and 0.5 to 10 µM in test [3].

Turning to `CC(Oc1cc2sc(NC(=O)NCCN3CCOCC3)nc2cc1F)c1c(Cl)cccc1Cl` (stereo not drawn) [Example 29, 1-{6-[1-(2,6-dichlorophenyl)ethoxy]-5-fluoro-1,3-benzothiazol-2-yl}-3-(2-morpholin-4-ylethyl)urea], the IC50 in test [1] is less than 0.5 µM; in test [2] it was 0.5 to 10 µM; in test [3], less than 0.5 µM.

On to `CC(Oc1cc2sc(NC(=O)NCCN3CCOCC3)nc2cc1F)c1c(Cl)ccc(F)c1Cl` (stereo not drawn) [Example 31, 1-{6-[1-(2,6-dichloro-3-fluorophenyl)ethoxy]-5-fluoro-1,3-benzothiazol-2-yl}-3-(2-morpholin-4-ylethyl)urea], for which the half-maximal inhibitory concentration (IC50) in test [1] was less than 0.5 µM; in test [2] it was 0.5 to 10 µM; in test [3] it was less than 0.5 µM.

As for `CC(Oc1ccc2nc(NC(=O)NCCN3CCC(Cc4ccccc4)CC3)sc2c1)c1c(Cl)ccc(F)c1Cl` (stereo not drawn) [Example 34, 1-[2-(4-benzylpiperidin-1-yl)ethyl]-3-{6-[1-(2,6-dichloro-3-fluorophenyl)ethoxy]-1,3-benzothiazol-2-yl}urea], the values for the IC50 in test [1], in test [2] and in test [3] were 0.5 to 10 µM, greater than 10 µM and 0.5 to 10 µM, respectively.

As to `CC(Oc1ccc2nc(NC(=O)NCCN3CCN(Cc4ccccc4)CC3)sc2c1)c1c(Cl)ccc(F)c1Cl` (stereo not drawn) [Example 35, 1-[2-(4-benzylpiperazin-1-yl)ethyl]-3-{6-[1-(2,6-dichloro-3-fluorophenyl)ethoxy]-1,3-benzothiazol-2-yl}urea], the IC50 is 0.5 to 10 µM in test [1], greater than 10 µM in test [2] and 0.5 to 10 µM in test [3].

Take `CC(Oc1ccc2nc(NC(=O)NCCN3CCN(C(=O)OC(C)(C)C)CC3)sc2c1)c1c(Cl)ccc(F)c1Cl` (stereo not drawn) [Example 36, 1,1-dimethylethyl 4-{2-[({6-[1-(2,6-dichloro-3-fluorophenyl)ethoxy]-1,3-benzothiazol-2-yl}carbamoyl)amino]ethyl}piperazine-1-carboxylate]: the IC50 in test [1] is 0.5 to 10 µM; in test [2], greater than 10 µM; in test [3] it was 0.5 to 10 µM.

Regarding `CC(Oc1ccc2nc(NC(=O)NCCN3CCNCC3)sc2c1)c1c(Cl)ccc(F)c1Cl.O=C(O)C(F)(F)F` (stereo not drawn) [Example 37, 1-{6-[1-(2,6-Dichloro-3-fluorophenyl)ethoxy]-1,3-benzothiazol-2-yl}-3-(2-piperazin-1-ylethyl)urea trifluoroacetate], the IC50 in test [1] is less than 0.5 µM; in test [2], 0.5 to 10 µM; in test [3], less than 0.5 µM.

Consider `CC(Oc1ccc2nc(NC(=O)NCCC3CCNCC3)sc2c1)c1c(Cl)ccc(F)c1Cl` (stereo not drawn) [Example 39, 1-{6-[1-(2,6-Dichloro-3-fluorophenyl)ethoxy]-1,3-benzothiazol-2-yl}-3-(2-piperidin-4-ylethyl)urea trifluoroacetate], for which the figures for the IC50 in test [1], in test [2] and in test [3] were less than 0.5 µM, 0.5 to 10 µM and less than 0.5 µM, respectively.

For the compound `CC(Oc1ccc2nc(NC(=O)NCCCn3cccc3)sc2c1)c1c(Cl)ccc(F)c1Cl` (stereo not drawn) [Example 40, 1-{6-[1-(2,6-dichloro-3-fluorophenyl)ethoxy]-1,3-benzothiazol-2-yl}-3-[3-(1H-pyrrol-1-yl)propyl]urea], the IC50 in test [1] was 0.5 to 10 µM; in test [2], greater than 10 µM; in test [3], 0.5 to 10 µM.

Turning to `CC(Oc1ccc2nc(NC(=O)NCCCN3CCC(Cc4ccccc4)CC3)sc2c1)c1c(Cl)ccc(F)c1Cl` (stereo not drawn) [Example 41, 1-[3-(4-benzylpiperidin-1-yl)propyl]-3-{6-[1-(2,6-dichloro-3-fluorophenyl)ethoxy]-1,3-benzothiazol-2-yl}urea], the IC50 in test [1] was 0.5 to 10 µM; in test [2], greater than 10 µM; in test [3], 0.5 to 10 µM.

Regarding `CC(Oc1ccc2nc(NC(=O)NCCCN3CCOCC3)sc2c1)c1c(Cl)ccc(F)c1Cl` (stereo not drawn) [Example 42, 1-{6-[1-(2,6-dichloro-3-fluorophenyl)ethoxy]-1,3-benzothiazol-2-yl}-3-(3-morpholin-4-ylpropyl)urea], the figures for the IC50 in test [1], in test [2] and in test [3] were less than 0.5 µM, 0.5 to 10 µM and 0.5 to 10 µM, respectively.

Consider `CC(Oc1ccc2nc(NC(=O)NCCCN(C)C)sc2c1)c1c(Cl)ccc(F)c1Cl` (stereo not drawn) [Example 43, 1-{6-[1-(2,6-dichloro-3-fluorophenyl)ethoxy]-1,3-benzothiazol-2-yl}-3-[3-(dimethylamino)propyl]urea], for which the IC50 in test [1] is less than 0.5 µM; in test [2], greater than 10 µM; in test [3], less than 0.5 µM.

`CC(Oc1ccc2nc(NC(=O)NCCCN3CCCCC3)sc2c1)c1c(Cl)ccc(F)c1Cl` (stereo not drawn) [Example 44, 1-{6-[1-(2,6-dichloro-3-fluorophenyl)ethoxy]-1,3-benzothiazol-2-yl}-3-(3-piperidin-1-ylpropyl)urea]: the IC50 was less than 0.5 µM in test [1], less than 0.5 µM in test [2] and 0.5 to 10 µM in test [3].

Turning to `CC(Oc1ccc2nc(NC(=O)NCCCN3CCCC3=O)sc2c1)c1c(Cl)ccc(F)c1Cl` (stereo not drawn) [Example 45, 1-{6-[1-(2,6-dichloro-3-fluorophenyl)ethoxy]-1,3-benzothiazol-2-yl}-3-[3-(2-oxopyrrolidin-1-yl)propyl]urea], the IC50 was less than 0.5 µM in test [1], 0.5 to 10 µM in test [2] and 0.5 to 10 µM in test [3].

`CC(Oc1ccc2nc(NC(=O)NCCCN3CCN(Cc4c(F)cccc4Cl)CC3)sc2c1)c1c(Cl)ccc(F)c1Cl` (stereo not drawn) [Example 46, 1-{3-[4-(2-chloro-6-fluorobenzyl)piperazin-1-yl]propyl}-3-{6-[1-(2,6-dichloro-3-fluorophenyl)ethoxy]-1,3-benzothiazol-2-yl}urea]: the concentration for half-maximal inhibition (IC50) in test [1] was 0.5 to 10 µM; in test [2], greater than 10 µM; in test [3], 0.5 to 10 µM.
